Measured values taken from US7629502B2, “Non-antibiotic selection marker genes” (Academia Sinica, priority 2006, dated 2009).
Entries after “also recorded” stand apart in the source; their conditions may differ.

Key:
Type in all cases: in vivo, Arabidopsis thaliana
wild-type plants = experiment: Free Trp content analysis (GC-MS), wild-type plants
Description: (§1) Two-week old wild-type and transgenic plants were harvested from germination medium with or without 50 μM 5MT. Endogenous free tryptophan analysis was performed described previously (Edlund et al., 1995) with some modification. Cell extracts were prepared from approximately 50 mg dry weight. Frozen tissues were ground with methanol under continuous shaking for 24 h at 4° C. After centrifuged, the supernatant was filtered by 0.22 μm membrane (Millipore Millexg). The filtered solution was reduced to 1 ml in a Speed Vac concentrator. The final solution was extracted by SEP column (Water Oasis HLB6 cc) and use 1 ml methanol to elute the extracts. Each 100 μl sample was methylated with 160 μl pyridine and 40 μl […]-N-trimethylsilyl-trifuoroacetamide at 70° C. for 1 hr. The GC-MS analysis was performed according to conditions described by Edlund et al (Edlund et al., 1995).
(§2) To elucidate the possible relation between the accumulation of free Trp content and resistance to 5MT and CdCl2, free Trp content was measured in AtTSB1 transgenic plants. […] The level in the transgenic plants TM1, TM3 and TM4 was 10- to 15-fold higher (5,900-8,900 pmole/g dry weight) than in wild-type plants (587 pmole/g dry weight). […] A similar trend was observed when TC3, TC4 and TC5 transgenic plants were measured for Trp content, with or without CdCl2.

[1] = system: AtTSB1 transgenic Arabidopsis (TH); experiment: Seedling survival of AtTSB1 transgenic (TH) Arabidopsis on medium with 5MT or CdCl2; conditions: for seedling survival rate: TH, 2 weeks, surviving/seeds; for survival / growth of transgenic plants: medium containing 75 μM 5MT or 300 μM CdCl2
Description: (§3) Arabidopsis thaliana (L.) Hyen. ecotype Columbia was grown in controlled environment chambers at 24° C., 70% relative humidity, with 24 h photoperiod (about 120 μmol m^−2s^−1). To transform Arabidopsis plants, we used the floral dip method described previously (Clough and Bent, 1998). To transgenic plants constitutively expressing AtTSB1, were selected on MS medium with 20 ppm hygromycin (Murashige and Skoog 1962). The sensitivity of wild type and transgenic T2 homozygous seeds (T3 generation) to different concentrations of 5MT and CdCl2 were assessed on the basis of the germination percentage of seedlings at the end of 2 weeks. After standardizing the optimal selection concentration of 5MT and CdCl2, the floral dip transformation was again performed to evaluate the selection efficiency between TSB1 and conventional hydromycin selection systems.
(§4) Different concentrations of 5MT (0, 25, 50, 75, 100 and 200 μM) and CdCl2 (0, 50, 100, 200, 300, 400 and 500 μM) were evaluated in order to select the transformants constitutively expressing AtTSB1 gene and in these experiments untransformed wild-types used as negative control. Sixty seeds of each wild-type and transgenic seeds were germinated on medium containing various concentrations of 5MT for 2 weeks, and the number of surviving plants recorded (Table 1). Under all the tested conditions, both wild-type and transgenic seeds could germinate almost equally. […] In the meantime, all seedlings on medium containing less than 50 μM 5MT survived selection even after 2 weeks. Thus, 75 μM 5MT is the optimum concentration for the selection of putative transformants.
(§5) A total of one hundred seeds each of wild-type and transgenic plants were germinated on medium containing different concentrations of CdCl2, for 2 weeks, and the survival was recorded (Table 2). The germination rate in wild-type and transgenic seedlings was almost equal on the medium containing CdCl2 concentrations up to 300 μM. […] All the wild-type and transgenic seedlings survived even after 2 weeks on medium containing CdCl2 less than 100 μM. From these observations, we concluded that 300 μM CdCl2 is the optimal concentration needed for selecting putative transformants.

wild-type Arabidopsis [2] = experiment: Seedling survival of wild-type Arabidopsis on medium with 5MT or CdCl2; conditions: WT, 1 week, surviving/seeds
[3] = system: AtTSB1 transgenic plants (TM1, TM3, TM4); experiment: Free Trp content analysis (GC-MS), TSB transgenic plants; conditions: for Endogenous contents of tryptophan: two-week old plants
Description: as §1, §2

[4] = system: AtTSB1 transgenic Arabidopsis (TH); experiment: Seedling survival of AtTSB1 transgenic (TH) Arabidopsis on medium with 5MT or CdCl2; conditions: for seedling survival rate: TH, surviving/seeds
wild-type Arabidopsis [5] = experiment: Seedling survival of wild-type Arabidopsis on medium with 5MT or CdCl2; conditions: for seedling survival rate: WT, surviving/seeds; for survival of wild type / non-transformed plants: medium containing 75 μM 5MT or 300 μM CdCl2; for optimum concentration for the selection of putative transformants: wild-type versus transgenic seedlings
Description: as §3, §4, §5

## Cc1ccc2[nH]cc(C[C@H](N)C(=O)O)c2c1 [5MT, 5-methyl-tryptophan]
wild-type plants; wild type + 5MT 50 μM, two-week old plants
  Endogenous contents of tryptophan: 125 ± 6 pmole/g g · DW
wild-type plants; wild-type plants, 5MT in the medium
  level of free Trp: 125 pmole/g dry weight
wild-type plants; wild-type plants, 5MT in the medium versus without
  reduction of the level of free Trp: fivefold
[1]; 5MT 25 μM
  seedling survival rate: 60/60
[1]; 5MT 100 μM
  seedling survival rate: 34/60
[1]
  survival / growth of transgenic plants: grew and survived
[1]; transgenic seedlings, 75 μM 5MT
  survival rate: 100%
wild-type Arabidopsis [2]; 5MT 75 μM
  seedling survival rate: 60/60
wild-type Arabidopsis [2]; 5MT 100 μM
  seedling survival rate: 25/60
[3]; TM1 + 5MT 50 μM
  Endogenous contents of tryptophan: 5,200 ± 14 pmole/g g · DW
[3]; TM3 + 5MT 50 μM
  Endogenous contents of tryptophan: 5,100 ± 11 pmole/g g · DW
[3]; TM4 + 5MT 50 μM
  Endogenous contents of tryptophan: 7,200 ± 10 pmole/g g · DW
[3]; transgenic plants TM1, TM3 and TM4, 5MT in the medium
  level of free Trp: 5,100-7,200 pmole/g dry weight
[4]; 5MT 50 μM, 1 week
  seedling survival rate: 40/40
[4]; 5MT 50 μM, 2 weeks
  seedling survival rate: 60/60
[4]; 5MT 75 μM, 1 week
  seedling survival rate: 60/60
[4]; 5MT 75 μM, 2 weeks
  seedling survival rate: 60/60
[4]; 5MT 100 μM, 1 week
  seedling survival rate: 60/60
[4]; 5MT 200 μM, 1 week
  seedling survival rate: 60/60
[4]; 5MT 200 μM, 2 weeks
  seedling survival rate: 18/60
[4]; all concentrations of 5MT tested (100 and 200 μM)
  resistance of transgenic seedlings: showed resistance
wild-type Arabidopsis [5]; 75 μM and higher (100 and 200 μM) 5MT, after 2 weeks
  growth of wild-type plants: turned pale green and ceased to grow
wild-type Arabidopsis [5]; 5MT 25 μM, 1 week
  seedling survival rate: 60/60
wild-type Arabidopsis [5]; 5MT 25 μM, 2 weeks
  seedling survival rate: 24/60
wild-type Arabidopsis [5]; 5MT 50 μM, 1 week
  seedling survival rate: 60/60
wild-type Arabidopsis [5]; 5MT 50 μM, 2 weeks
  seedling survival rate: 10/60
wild-type Arabidopsis [5]; 5MT 75 μM, 2 weeks
  seedling survival rate: 0/60
wild-type Arabidopsis [5]; 5MT 100 μM, 2 weeks
  seedling survival rate: 0/60
wild-type Arabidopsis [5]; 5MT 200 μM, 1 week
  seedling survival rate: 12/60
wild-type Arabidopsis [5]; 5MT 200 μM, 2 weeks
  seedling survival rate: 0/60
wild-type Arabidopsis [5]
  survival of wild type / non-transformed plants: did not survive; also recorded: deteriorated
wild-type Arabidopsis [5]; 2 weeks
  optimum concentration for the selection of putative transformants: 75 µM

## [Cl][Cd][Cl] [CdCl2]
[1]; 300 μM CdCl2, after 2 weeks
  growth of transgenic plants: slightly inhibited
[1]; CdCl2 100 μM
  seedling survival rate: 100/100
[1]; CdCl2 200 μM
  seedling survival rate: 95/100
[1]; CdCl2 300 μM
  seedling survival rate: 98/100
[1]; CdCl2 500 μM
  seedling survival rate: 62/100
[1]
  survival / growth of transgenic plants: grew and survived
wild-type Arabidopsis [2]; CdCl2 200 μM
  seedling survival rate: 100/100
wild-type Arabidopsis [2]; CdCl2 300 μM
  seedling survival rate: 80/100
wild-type Arabidopsis [2]; CdCl2 400 μM
  seedling survival rate: 12/100
[4]; 300 μM CdCl2, after 2 weeks
  transgenic seedlings greener than controls: 98%
[4]; CdCl2 50 μM, 1 week
  seedling survival rate: 100/100
[4]; CdCl2 50 μM, 2 weeks
  seedling survival rate: 100/100
[4]; CdCl2 100 μM, 1 week
  seedling survival rate: 100/100
[4]; CdCl2 200 μM, 1 week
  seedling survival rate: 100/100
[4]; CdCl2 300 μM, 1 week
  seedling survival rate: 100/100
[4]; CdCl2 400 μM, 1 week
  seedling survival rate: 100/100
[4]; CdCl2 400 μM, 2 weeks
  seedling survival rate: 80/100
[4]; CdCl2 500 μM, 1 week
  seedling survival rate: 100/100
wild-type Arabidopsis [5]; CdCl2 50 μM, 1 week
  seedling survival rate: 100/100
wild-type Arabidopsis [5]; CdCl2 50 μM, 2 weeks
  seedling survival rate: 100/100
wild-type Arabidopsis [5]; CdCl2 100 μM, 1 week
  seedling survival rate: 100/100
wild-type Arabidopsis [5]; CdCl2 100 μM, 2 weeks
  seedling survival rate: 100/100
wild-type Arabidopsis [5]; CdCl2 200 μM, 2 weeks
  seedling survival rate: 30/100
wild-type Arabidopsis [5]; CdCl2 300 μM, 2 weeks
  seedling survival rate: 0/100
wild-type Arabidopsis [5]; CdCl2 400 μM, 2 weeks
  seedling survival rate: 0/100
wild-type Arabidopsis [5]; CdCl2 500 μM, 1 week
  seedling survival rate: 8/100
wild-type Arabidopsis [5]; CdCl2 500 μM, 2 weeks
  seedling survival rate: 0/100
wild-type Arabidopsis [5]
  survival of wild type / non-transformed plants: did not survive; also recorded: deteriorated
wild-type Arabidopsis [5]; 2 weeks
  optimum concentration for the selection of putative transformants: 300 µM
